Assay results from ChEMBL document CHEMBL5614394, “Novel pleuromutilin derivatives conjugated with phenyl-sulfide and boron-containing moieties as potent antibacterial agents against antibiotic-resistant bacteria” (Eur J Med Chem, 2024).
Converted amounts (≈) assume the structure as drawn.

How the values were obtained:
Staphylococcus aureus = assay: Antibacterial activity against Staphylococcus aureus ATCC 29213 assessed as inhibition of visible growth of bacteria incubated for 24 hrs by CLSI protocol based broth-dilution method; type: functional
[1] = test system: Staphylococcus epidermidis; assay: Antibacterial activity against Staphylococcus epidermidis ATCC 12228 assessed as inhibition of visible growth of bacteria incubated for 24 hrs by CLSI protocol based broth-dilution method; type: functional

| Molecule | MIC (Staphylococcus aureus) | MIC [1] |
| --- | --- | --- |
| C=C[C@]1(C)C[C@@H](OC(=O)CSc2ccccc2NC(=O)c2ccc3c(c2)B(O)OC3)[C@]2(C)[C@H](C)CC[C@]3(CCC(=O)[C@H]32)[C@@H](C)[C@@H]1O | 0.063 µg/mL (≈ 0.0976 µM) | 1 µg/mL (≈ 1.55 µM) |
| C=C[C@]1(C)C[C@@H](OC(=O)CS[C@@H]2CC[C@@H](NC(=O)c3ccc4c(c3)B(O)OC4)C[C@H]2O)[C@]2(C)[C@H](C)CC[C@]3(CCC(=O)[C@H]32)[C@@H](C)[C@@H]1O | 0.063 µg/mL (≈ 0.0944 µM) | 4 µg/mL (≈ 5.99 µM) |
| C=C[C@]1(C)C[C@@H](OC(=O)CSc2cccc(NC(=O)c3ccc(B4OC(C)(C)C(C)(C)O4)cc3)c2)[C@]2(C)[C@H](C)CC[C@]3(CCC(=O)[C@H]32)[C@@H](C)[C@@H]1O | 0.063 µg/mL (≈ 0.088 µM) | 0.063 µg/mL (≈ 0.088 µM) |
| C=C[C@]1(C)C[C@@H](OC(=O)CSc2cccc(NC(=O)c3cc(C)cc(B(O)O)c3)c2)[C@]2(C)[C@H](C)CC[C@]3(CCC(=O)[C@H]32)[C@@H](C)[C@@H]1O | 0.031 µg/mL (≈ 0.0479 µM) | 0.031 µg/mL (≈ 0.0479 µM) |
| C=C[C@]1(C)C[C@@H](OC(=O)CSc2cccc(NC(=O)c3cc(F)c(B(O)O)c(F)c3)c2)[C@]2(C)[C@H](C)CC[C@]3(CCC(=O)[C@H]32)[C@@H](C)[C@@H]1O | 0.031 µg/mL (≈ 0.0463 µM) | 0.031 µg/mL (≈ 0.0463 µM) |
| C=C[C@]1(C)C[C@@H](OC(=O)CSc2cccc(NCc3ccccc3B(O)O)c2)[C@]2(C)[C@H](C)CC[C@]3(CCC(=O)[C@H]32)[C@@H](C)[C@@H]1O | 0.031 µg/mL (≈ 0.05 µM) | 0.031 µg/mL (≈ 0.05 µM) |
| C=C[C@]1(C)C[C@@H](OC(=O)CSc2cccc(NC(=O)c3ccc(F)c(B(O)O)c3)c2)[C@]2(C)[C@H](C)CC[C@]3(CCC(=O)[C@H]32)[C@@H](C)[C@@H]1O | 0.063 µg/mL (≈ 0.0967 µM) | 16 µg/mL (≈ 24.6 µM) |
| C=C[C@]1(C)C[C@@H](OC(=O)CSc2cccc(NC(=O)c3ccc(B(O)O)c([N+](=O)[O-])c3)c2)[C@]2(C)[C@H](C)CC[C@]3(CCC(=O)[C@H]32)[C@@H](C)[C@@H]1O | 0.063 µg/mL (≈ 0.0928 µM) | 0.063 µg/mL (≈ 0.0928 µM) |
| C=C[C@]1(C)C[C@@H](OC(=O)CSc2cccc(NC(=O)c3ccc(C)c(B(O)O)c3)c2)[C@]2(C)[C@H](C)CC[C@]3(CCC(=O)[C@H]32)[C@@H](C)[C@@H]1O | 0.031 µg/mL (≈ 0.0479 µM) | 0.031 µg/mL (≈ 0.0479 µM) |
| C=C[C@]1(C)C[C@@H](OC(=O)CSc2ccc(NC(=O)c3ccc(B(O)O)cc3)cc2)[C@]2(C)[C@H](C)CC[C@]3(CCC(=O)[C@H]32)[C@@H](C)[C@@H]1O | 0.063 µg/mL (≈ 0.0994 µM) | 0.5 µg/mL (≈ 0.789 µM) |
| C=C[C@]1(C)C[C@@H](OC(=O)CSc2ccc(NC(=O)c3ccc(B(O)O)c(F)c3)cc2)[C@]2(C)[C@H](C)CC[C@]3(CCC(=O)[C@H]32)[C@@H](C)[C@@H]1O | 0.063 µg/mL (≈ 0.0967 µM) | 16 µg/mL (≈ 24.6 µM) |
| C=C[C@]1(C)C[C@@H](OC(=O)CSc2cccc(NC(=O)Cc3ccc(B(O)O)cc3)c2)[C@]2(C)[C@H](C)CC[C@]3(CCC(=O)[C@H]32)[C@@H](C)[C@@H]1O | 0.063 µg/mL (≈ 0.0973 µM) | 0.063 µg/mL (≈ 0.0973 µM) |
| C=C[C@]1(C)C[C@@H](OC(=O)CSc2cccc(NC(=O)c3ccc(B(O)O)c(F)c3F)c2)[C@]2(C)[C@H](C)CC[C@]3(CCC(=O)[C@H]32)[C@@H](C)[C@@H]1O | 0.031 µg/mL (≈ 0.0463 µM) | 0.031 µg/mL (≈ 0.0463 µM) |

The remaining lines, values ahead:

| MIC (Staphylococcus aureus) | MIC [1] | Molecule |
| --- | --- | --- |
| 0.063 µg/mL (≈ 0.0985 µM) | 0.063 µg/mL (≈ 0.0985 µM) | C=C[C@]1(C)C[C@@H](OC(=O)CSc2cccc(NC(=O)c3ccc(B(O)O)s3)c2)[C@]2(C)[C@H](C)CC[C@]3(CCC(=O)[C@H]32)[C@@H](C)[C@@H]1O |
| 0.063 µg/mL (≈ 0.0967 µM) | 0.063 µg/mL (≈ 0.0967 µM) | C=C[C@]1(C)C[C@@H](OC(=O)CSc2cccc(NC(=O)c3cc(B(O)O)ccc3F)c2)[C@]2(C)[C@H](C)CC[C@]3(CCC(=O)[C@H]32)[C@@H](C)[C@@H]1O |
| 0.063 µg/mL (≈ 0.0973 µM) | 0.063 µg/mL (≈ 0.0973 µM) | C=C[C@]1(C)C[C@@H](OC(=O)CSc2cccc(NC(=O)Cc3cccc(B(O)O)c3)c2)[C@]2(C)[C@H](C)CC[C@]3(CCC(=O)[C@H]32)[C@@H](C)[C@@H]1O |
| 0.063 µg/mL (≈ 0.0971 µM) | 0.063 µg/mL (≈ 0.0971 µM) | C=C[C@]1(C)C[C@@H](OC(=O)CSc2cccc(NC(=O)c3cc(N)cc(B(O)O)c3)c2)[C@]2(C)[C@H](C)CC[C@]3(CCC(=O)[C@H]32)[C@@H](C)[C@@H]1O |
| 0.25 µg/mL | 0.25 µg/mL | 22-(3-(((5-Borono-3-pyridinyl)carbonyl)amino)phenylsulfanyl)-22-deoxypleuromutilin |
| 0.25 µg/mL (≈ 0.368 µM) | 0.25 µg/mL (≈ 0.368 µM) | C=C[C@]1(C)C[C@@H](OC(=O)CSc2cccc(NC(=O)c3ccc(B(O)O)cc3[N+](=O)[O-])c2)[C@]2(C)[C@H](C)CC[C@]3(CCC(=O)[C@H]32)[C@@H](C)[C@@H]1O |
| 0.031 µg/mL (≈ 0.0489 µM) | 0.031 µg/mL (≈ 0.0489 µM) | C=C[C@]1(C)C[C@@H](OC(=O)CSc2ccc(NC(=O)c3cccc(B(O)O)c3)cc2)[C@]2(C)[C@H](C)CC[C@]3(CCC(=O)[C@H]32)[C@@H](C)[C@@H]1O |
| 0.031 µg/mL (≈ 0.0467 µM) | 0.031 µg/mL (≈ 0.0467 µM) | C=C[C@]1(C)C[C@@H](OC(=O)CSc2cccc(NC(=O)c3cc(OC)cc(B(O)O)c3)c2)[C@]2(C)[C@H](C)CC[C@]3(CCC(=O)[C@H]32)[C@@H](C)[C@@H]1O |
| 0.063 µg/mL (≈ 0.0967 µM) | 1 µg/mL (≈ 1.53 µM) | C=C[C@]1(C)C[C@@H](OC(=O)CSc2ccc(NC(=O)c3cc(B(O)O)ccc3F)cc2)[C@]2(C)[C@H](C)CC[C@]3(CCC(=O)[C@H]32)[C@@H](C)[C@@H]1O |
| 0.063 µg/mL (≈ 0.0898 µM) | 0.5 µg/mL (≈ 0.713 µM) | C=C[C@]1(C)C[C@@H](OC(=O)CSc2cccc(NC(=O)c3cc(B(O)O)cc(C(F)(F)F)c3)c2)[C@]2(C)[C@H](C)CC[C@]3(CCC(=O)[C@H]32)[C@@H](C)[C@@H]1O |
| 0.031 µg/mL (≈ 0.0476 µM) | 0.031 µg/mL (≈ 0.0476 µM) | C=C[C@]1(C)C[C@@H](OC(=O)CSc2cccc(NC(=O)c3cc(F)cc(B(O)O)c3)c2)[C@]2(C)[C@H](C)CC[C@]3(CCC(=O)[C@H]32)[C@@H](C)[C@@H]1O |
| 0.063 µg/mL (≈ 0.088 µM) | 0.063 µg/mL (≈ 0.088 µM) | C=C[C@]1(C)C[C@@H](OC(=O)CSc2cccc(NC(=O)c3cccc(B4OC(C)(C)C(C)(C)O4)c3)c2)[C@]2(C)[C@H](C)CC[C@]3(CCC(=O)[C@H]32)[C@@H](C)[C@@H]1O |
| 0.063 µg/mL (≈ 0.0943 µM) | 1 µg/mL (≈ 1.5 µM) | C=C[C@]1(C)C[C@@H](OC(=O)CSc2cccc(NC(=O)c3ccc(B(O)O)c(Cl)c3)c2)[C@]2(C)[C@H](C)CC[C@]3(CCC(=O)[C@H]32)[C@@H](C)[C@@H]1O |
| 0.063 µg/mL (≈ 0.0967 µM) | 16 µg/mL (≈ 24.6 µM) | C=C[C@]1(C)C[C@@H](OC(=O)CSc2ccc(NC(=O)c3ccc(F)c(B(O)O)c3)cc2)[C@]2(C)[C@H](C)CC[C@]3(CCC(=O)[C@H]32)[C@@H](C)[C@@H]1O |
| 0.031 µg/mL (≈ 0.0467 µM) | 0.031 µg/mL (≈ 0.0467 µM) | C=C[C@]1(C)C[C@@H](OC(=O)CSc2cccc(NC(=O)c3ccc(B(O)O)c(OC)c3)c2)[C@]2(C)[C@H](C)CC[C@]3(CCC(=O)[C@H]32)[C@@H](C)[C@@H]1O |
| 0.031 µg/mL (≈ 0.0467 µM) | 0.031 µg/mL (≈ 0.0467 µM) | C=C[C@]1(C)C[C@@H](OC(=O)CSc2cccc(NC(=O)c3cc(B(O)O)ccc3OC)c2)[C@]2(C)[C@H](C)CC[C@]3(CCC(=O)[C@H]32)[C@@H](C)[C@@H]1O |
| 0.016 µg/mL (≈ 0.0248 µM) | 0.25 µg/mL (≈ 0.387 µM) | C=C[C@]1(C)C[C@@H](OC(=O)CSc2ccc(NC(=O)c3ccc4c(c3)B(O)OC4)cc2)[C@]2(C)[C@H](C)CC[C@]3(CCC(=O)[C@H]32)[C@@H](C)[C@@H]1O |
| 0.063 µg/mL (≈ 0.0994 µM) | 0.063 µg/mL (≈ 0.0994 µM) | C=C[C@]1(C)C[C@@H](OC(=O)CSc2cccc(NC(=O)c3cccc(B(O)O)c3)c2)[C@]2(C)[C@H](C)CC[C@]3(CCC(=O)[C@H]32)[C@@H](C)[C@@H]1O |
